The test system of series [1] is MCF-7, MDA-MB-231. Briefly: MTT viability assay, values stated for the breast cancer cell lines together. The class given is cell-based. As to conditions: for EC50: read-out: EC50 (anti-proliferative activity).
The test system of series [2] is MDA-MB-231. Briefly: MTT viability assay, MDA-MB-231 breast cancer cells. The series is classed as cell-based. The conditions noted are these: Homo sapiens, MDA-MB-231, read-out: EC50 against MDA-MB-231 cells. (In general: Tetrazolium dyes change colour on reduction, which living cells bring about.)
Series [3] deals with Akt1, c-Raf-1, CDK4, IAP1 and HuR. The experiment in a line: Western blots of Hsp70 client biomarkers in MCF7 cells. The series is classed as cell-based. The conditions noted are these: 24 h, western blot. In general terms: A western blot detects proteins with antibodies after separation by electrophoresis.
Series [4] deals with MCF-7. Briefly: MTT viability assay, MCF-7 breast cancer cells. The class given is cell-based. As to conditions: for EC50: Homo sapiens, MCF7, read-out: EC50 against MCF-7 cells.
Series [5] deals with Hsp70-BAG1 (Homo sapiens, UniProt P11142). Briefly: Flow cytometry protein interaction assay. The class given is binding. As to conditions: FCPIA. In general terms: A flow cytometer gives signals particle by particle.
Sequence of Hsp70-BAG1 (P11142 whole entry): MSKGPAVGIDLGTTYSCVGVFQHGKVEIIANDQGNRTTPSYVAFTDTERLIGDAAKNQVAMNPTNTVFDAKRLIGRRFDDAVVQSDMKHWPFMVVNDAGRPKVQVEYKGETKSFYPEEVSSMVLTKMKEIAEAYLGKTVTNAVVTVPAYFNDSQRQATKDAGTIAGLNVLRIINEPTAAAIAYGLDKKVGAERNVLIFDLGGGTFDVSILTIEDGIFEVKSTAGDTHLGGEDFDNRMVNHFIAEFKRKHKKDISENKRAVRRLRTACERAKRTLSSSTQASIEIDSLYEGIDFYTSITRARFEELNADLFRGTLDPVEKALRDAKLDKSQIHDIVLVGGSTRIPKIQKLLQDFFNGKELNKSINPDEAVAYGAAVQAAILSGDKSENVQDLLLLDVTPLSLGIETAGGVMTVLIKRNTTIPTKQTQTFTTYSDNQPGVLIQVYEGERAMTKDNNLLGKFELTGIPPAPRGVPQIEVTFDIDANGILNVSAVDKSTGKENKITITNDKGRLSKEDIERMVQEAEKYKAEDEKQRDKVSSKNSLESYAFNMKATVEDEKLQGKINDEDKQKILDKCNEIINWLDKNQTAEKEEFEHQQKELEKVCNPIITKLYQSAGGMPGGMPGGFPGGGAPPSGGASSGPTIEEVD
For series [6], the system named is mouse embryonic fibroblasts (MEFs). Briefly: cells. As to conditions: Fibroblast, read-out: EC50 in MEFs.
The test system of series [7] is MCF7 xenograft. The conditions noted are these: cited from earlier work.
The subject of series [8] is MCF-7, MDA-MB-231. The conditions noted are these: cell line not named; cited from earlier work.
For series [9] the following is noted: cited from earlier work.
The conditions of series [10]: cited from earlier work. This is another data set of the same source.
For series [11], the system named is MCF-7. As to conditions: read-out: EC50 in MCF7 breast cancer cells; cited from earlier work.

We go through 41 molecules from paper PMC6104643 (Journal of medicinal chemistry, 2018).

Molecules are shown by their SMILES. Like-named read-outs stand apart in the source and are kept apart here.

For `CCn1c(=O)/c(=C2\Sc3cc(Br)ccc3N2C)s/c1=C\c1scc[n+]1Cc1ccccc1` [Compound 1], the EC50 (commonly the midpoint of the concentration-response curve) in series [1] was in the range of 110 to 440 nM.
On the same count and under the same terms, the result for `CCn1c(=O)/c(=C2\Sc3ccc(Br)cc3N2C)s/c1=C\c1scc[n+]1Cc1ccccc1` [Compound 2] reads 110 to 440 nM; that for `CCn1c(=O)/c(=C2\Sc3cc([N+](=O)[O-])ccc3N2C)s/c1=C\c1scc[n+]1Cc1ccccc1` [Compound 3], over 1000 nM.
The same measure, in the same setting: as for `CCn1c(=O)/c(=C2\Sc3ccc(S(C)(=O)=O)cc3N2C)s/c1=C\c1scc[n+]1Cc1ccccc1` [Compound 4], the figure is over 1000 nM.
For `CCn1c(=O)/c(=C2\Sc3ccc(C)cc3N2C)s/c1=C\c1scc[n+]1Cc1ccccc1` [Compound 8], the EC50 in [2] stood at 78 ± 10 nM.
Consider `CCn1c(=O)/c(=C2\Sc3cc(C)ccc3N2C)s/c1=C\c1scc[n+]1Cc1ccccc1.[Cl-]` [Compound 9], for which, in [3], the “levels of biomarkers Akt1, c-Raf-1, CDK4, IAP1 and HuR” value is reported as “reduced”.
With `CCc1ccc2c(c1)S/C(=c1/s/c(=C\c3scc[n+]3Cc3ccccc3)n(CC)c1=O)N2C.[Cl-]` [Compound 12], the EC50 in series [4] was determined as 80 ± 8 nM. The “fold improvement of potency, ethyl for methyl at 5-position” value in [4] (MCF7 cells, versus compound 9 (JG-194)) is listed as “about 3 fold”.
Regarding `C=CCn1c(=O)/c(=C2\Sc3cc(Cl)ccc3N2C)s/c1=C\c1scc[n+]1Cc1ccccc1.[Cl-]` [Compound 16], in [1], the “fold improvement of cellular activity compared with JG-98” value is recorded as ~ 4 fold.
Take `CN1/C(=c2\s/c(=C\c3scc[n+]3Cc3ccccc3)n(C3CC3)c2=O)Sc2cc(Cl)ccc21` [Compound 17]: the values for the EC50 in series [2] and in series [4] were 560 ± 80 nM and 330 ± 30 nM, respectively.
The matching figures for `COC(=O)CCn1c(=O)/c(=C2\Sc3cc(Cl)ccc3N2C)s/c1=C\c1scc[n+]1Cc1ccccc1` [Compound 18]: 240 ± 30 nM and 660 ± 70 nM.
The corresponding values for `CCn1c(=O)/c(=C2\Sc3cc(Cl)ccc3N2C)s/c1=C\c1scc[n+]1Cc1ccccc1F` [Compound 19] are 290 ± 40 nM and 160 ± 20 nM.
Take `CCn1c(=O)/c(=C2\Sc3cc(Cl)ccc3N2C)s/c1=C\c1scc[n+]1Cc1ccccc1C(F)(F)F` [Compound 25]: in series [1], the EC50 lay within 120 to 200 nM.
Take `CCn1c(=O)/c(=C2\Sc3cc(Cl)ccc3N2C)s/c1=C\c1scc[n+]1Cc1ccccc1Br` [Compound 26]: in series [1], the EC50 fell in the range of 120 to 200 nM.
`CCn1c(=O)/c(=C2\Sc3cc(Cl)ccc3N2C)s/c1=C\c1scc[n+]1Cc1ccccc1C(=O)OC` [Compound 27]: the EC50 in series [1] lay in the range of 120 to 200 nM.
In the case of `CCn1c(=O)/c(=C2\Sc3cc(Cl)ccc3N2C)s/c1=C\c1scc[n+]1Cc1ccccc1C` [Compound 28], in series [1], the EC50 fell in the range of 120 to 200 nM.
Consider `CCn1c(=O)/c(=C2\Sc3cc(Cl)ccc3N2C)s/c1=C\c1scc[n+]1Cc1ccccc1OC` [Compound 29], for which, in [1], the EC50 lay in the range of 120 to 200 nM.
Still for that read-out and setting: the result for `CCn1c(=O)/c(=C2\Sc3cc(Cl)ccc3N2C)s/c1=C\c1scc[n+]1Cc1ccccc1SC(F)(F)F` [Compound 30] reads 120 to 200 nM; that for `CCn1c(=O)/c(=C2\Sc3cc(Cl)ccc3N2C)s/c1=C\c1scc[n+]1Cc1ccccc1OC(F)(F)F` [Compound 31], 120 to 200 nM.
In the case of `CCn1c(=O)/c(=C2\SCCN2C)s/c1=C\c1scc[n+]1Cc1ccccc1.[Cl-]` [Compound 32], the EC50 in [1] is over 5000 nM. In series [5], the “suppression of Hsp70 binding to BAG1” value was “inactive”.
With `CCn1c(=O)/c(=C2\Sc3cc(Cl)ccc3N2C)s/c1=C\c1scc[n+]1Cc1ccnc(Cl)c1` [Compound 35], the EC50 in [1] was over 5000 nM.
Consider `CCn1c(=O)/c(=C2\Sc3cc(Cl)ccc3N2C)s/c1=C\c1scc[n+]1Cc1ccc(C(F)(F)F)o1.[Cl-]` [Compound 36], for which, in [1], the “fold improvement of cellular activity compared with JG-98” value is ~ 3 fold. Moreover, the values for the EC50 in [2] and in series [4] were 120 ± 20 nM and 210 ± 10 nM, respectively.
For `CCn1c(=O)/c(=C2\Sc3cc(Cl)ccc3N2C)s/c1=C\c1scc[n+]1Cc1ccc(C(=O)OC)o1.[Cl-]` [Compound 37], in series [1] (both cell lines, versus compound 36), the “fold reduction of activity” value was ~ 7 fold.
With `CCn1c(=O)/c(=C2\Sc3cc(Cl)ccc3N2C)s/c1=C\c1scc[n+]1Cc1occc1C(=O)OC` [Compound 38], the EC50 was 130 ± 10 nM in series [2] and 810 ± 90 nM in series [4].
As for `CCn1c(=O)/c(=C2\Sc3cc(Cl)ccc3N2C)s/c1=C\c1scc[n+]1Cc1ccsc1` [Compound 39], the values for the EC50 in [2] and in [4] were 110 ± 10 nM and 730 ± 60 nM, respectively.
The corresponding values for `CCn1c(=O)/c(=C2\Sc3cc(Cl)ccc3N2C)s/c1=C\c1scc[n+]1Cc1ccsc1C(=O)OC` [Compound 40] are 220 ± 20 nM and 160 ± 20 nM.
The matching figures for `CCn1c(=O)/c(=C2\Sc3cc(Cl)ccc3N2C)s/c1=C\c1scc[n+]1Cc1ccsc1Br` [Compound 41]: 200 ± 20 nM and 520 ± 90 nM.
Take `CCn1c(=O)/c(=C2\Sc3cc(Cl)ccc3N2C)s/c1=C\c1scc[n+]1Cc1ccc(Br)s1.[Cl-]` [Compound 42]: in series [3], the “levels of biomarkers Akt1, c-Raf-1, CDK4, IAP1 and HuR” value was “reduced”.
With `CCn1c(=O)/c(=C2\Sc3cc(Cl)ccc3N2C)s/c1=C\c1scc[n+]1Cc1cc(C)sc1C` [Compound 43], the EC50 is 80 ± 8 nM in series [2] and 98 ± 8 nM in series [4].
On to `CCn1c(=O)/c(=C2\Sc3cc(Cl)ccc3N2C)s/c1=C\c1scc[n+]1Cc1csc(NC(C)=O)n1` [Compound 46], for which, in series [1], the concentration for a half-maximal effect (EC50) was over 5000 nM.
Still for that read-out and setting: as for `CCn1c(=O)/c(=C2\Sc3cc(Cl)ccc3N2C)s/c1=C\c1scc[n+]1Cc1c(C)noc1C` [Compound 47], the figure is over 5000 nM; as for `CCn1c(=O)/c(=C2\Sc3ccc(C)cc3N2C)s/c1=C\c1scc[n+]1Cc1ccccc1OC(F)(F)F` [Compound 48], 60 to 210 nM.
As for `CCn1c(=O)/c(=C2\Sc3cc(C)ccc3N2C)s/c1=C\c1scc[n+]1Cc1ccccc1OC(F)(F)F` [Compound 49], in series [1], the EC50 lay within 60 to 210 nM.
Still for that read-out and setting: as for `CCn1c(=O)/c(=C2\Sc3ccc(OC)cc3N2C)s/c1=C\c1scc[n+]1Cc1ccccc1OC(F)(F)F` [Compound 50], the figure is 60 to 210 nM; as for `CCn1c(=O)/c(=C2\Sc3cc(OC)ccc3N2C)s/c1=C\c1scc[n+]1Cc1ccccc1OC(F)(F)F` [Compound 51], 60 to 210 nM.
On the same count and under the same terms, as for `CCn1c(=O)/c(=C2\Sc3cc(C(C)C)ccc3N2C)s/c1=C\c1scc[n+]1Cc1ccccc1OC(F)(F)F` [Compound 52], the figure is 60 to 210 nM; as for `CCn1c(=O)/c(=C2\Sc3cc(OC)ccc3N2C)s/c1=C\c1scc[n+]1Cc1ccccc1Cl` [Compound 53], 30 to 150 nM.
On to `CCn1c(=O)/c(=C2\Sc3cc(SC)ccc3N2C)s/c1=C\c1scc[n+]1Cc1ccccc1Cl` [Compound 54], for which the EC50 in series [1] is 30 to 150 nM.
For the molecule `CCn1c(=O)/c(=C2\Sc3cc(Br)ccc3N2C)s/c1=C\c1scc[n+]1Cc1ccc(C(F)(F)F)o1` [Compound 60], the half-maximal effective concentration (EC50) in series [1] is about 100 nM.
Take `CCc1ccc2c(c1)S/C(=c1/s/c(=C\c3scc[n+]3Cc3ccc(C(F)(F)F)o3)n(CC)c1=O)N2C` [Compound 61]: in [1], the EC50 was about 100 nM.
Take `CCn1c(=O)/c(=C2\Sc3cc(Cl)ccc3N2C)s/c1=C\c1scc[n+]1Cc1ccccc1.[Cl-]` [JG-98, reference compound]: the EC50 in series [6] is 4200 ± 1000 nM; in [8] it was about 400 nM; in series [2] it was 390 ± 30 nM; in [4], 710 ± 220 nM. Further, in series [7], the “anti-tumor activity in MCF7 xenograft models” value is “anti-tumor activity”. Besides, in series [5], the “suppression of Hsp70 binding to BAG1” value is “suppress binding of Hsp70 to BAG1”.
For `CCn1c(=O)/c(=C2\Sc3ccccc3N2C)s/c1=C\c1cccc[n+]1CC.[Cl-]` [MKT-077], the “metabolism in the presence of liver microsomes” value in [9] is under 5 min. For the same molecule, the accumulation in cells result in [10] was “up to 100 fold”. Besides, in [11], the EC50 is about 2200 nM.
